What all share (assay type): cell-based
Assay [1] relates to β3 integrin. Description: Cell surface β3 integrin expression by flow cytometry after overnight drug incubation. The conditions noted are these: B-rafV600E melanoma cells, 5 μM. As for the experimental part:
(§1) FIGS. 13A-13P illustrate B-raf^V600E inhibits FAK to promote integrin surface expression. FIG. 13A: shRNAs 841, 102 and NC were induced in WM858 cells by IPTG for 5 days (n=4) followed by RNA quantitation. Genes regulated at 0 vs. 0.05 mM IPTG in 841 and 102 but not NC cells are shown. These were: ITGB3 (orange), FAK (blue). Light orange, light blue: up- or down-regulation, respectively, by either 841 or 102 shRNA. FIG. 13B: WM858 cells were transfected with FAK or EGFP cDNA. Regulated genes, FAK over EGFP cells, are shown in orange (up) or blue (down) (n=4). FIG. 13C: Flow cytometry of NC, 841 and 102 cells (un-induced vs. 0.05 mM IPTG for 5 days). FIG. 13D: Integrin cell surface mean intensities; mean.+−.s.d.; n=3; *, p<0.05; p values, Student's t-test; ns, not significant. FIG. 13E: Visualization of focal adhesions by paxillin staining on micropatterned fibronectin disks. FIGS. 13F and 13G: Proliferation speed in the absence (FIG. 13F) or presence (FIG. 13G) of FAK shRNAs; mean.+−.s.d.; n=8; *, p<0.05; p values, Student's t-test; ns, not significant. FIGS. 13H and 13I: Scratch wound healing in IPTG-induced cells; representative experiment (n=3). FIGS. 13J and 13K: Effect of IPTG-induced FAK knock-down on total (t) and phospho (p)-ERK; mean.+−.s.d.; n=4; *, p<0.05; p values, Student's t-test. FIG. 13L: Cell surface β1 and β3 integrin expression (flow cytometry) in B-raf^V600E and wild-type cells after overnight drug incubation; % expression relative to DMSO is shown. FIGS. 13M-13O: FAK/ERK levels in NHM and WM858 after overnight drug incubation (FIG. 13M); quantification of FAK (FIG. 13N) and ERK phosphorylation (FIG. 13O); mean.+−.s.d.; n=4; *, p<0.05; p values, Student's t-test. FIG. 13P: ERK activity in NC, 841 and 102 cells (0.05 mM IPTG for 5 days) after overnight drug incubation.
Isopropyl β-D-1-thiogalactopyranoside (IPTG), 4′,6-Diamidino-2-phenylindole dihydrochloridemitomycin (DAPI), blebbistatin and PF-573228 were purchased from Sigma-Aldrich. Dabrafenib (GSK2118436) was purchased from Selleckchem. FAK antibody (06-543) was from EMD MILLIPORE®. FAK pY397 (44624G) antibody was from Life Technologies. Total ERK (9102) and phospho-ERK (4370) antibodies were from Cell Signaling. Paxillin (610051), ITGB3 (555754), ITGB1 (555443) and mouse IgG1 kappa (555749) antibodies were from BD Transduction Labs. Drugs were used at 5 μM final concentration. EGFP control cDNA was from (Lonza). […]
(§2) PYK2, a FAK-like tyrosine kinase, could not be detected in WM858 cells, irrespective of endogenous FAK levels. WM858 cells carrying control (NC) or FAK-specific shRNAs (841 and 102) were then exposed to IPTG for 5 days, and changes in adhesion gene expression were subsequently quantified by PCR. […]
Background: A flow cytometer gives signals particle by particle.

Assay [2] deals with β1 integrin. As to the kind of experiment: Cell surface β1 integrin expression by flow cytometry after overnight drug incubation. The settings on record: 5 μM. As for the experimental part: as §1
Isopropyl β-D-1-thiogalactopyranoside (IPTG), 4′,6-Diamidino-2-phenylindole dihydrochloridemitomycin (DAPI), blebbistatin and PF-573228 were purchased from Sigma-Aldrich. Dabrafenib (GSK2118436) was purchased from Selleckchem. FAK antibody (06-543) was from EMD MILLIPORE®. FAK pY397 (44624G) antibody was from Life Technologies. Total ERK (9102) and phospho-ERK (4370) antibodies were from Cell Signaling. Paxillin (610051), ITGB3 (555754), ITGB1 (555443) and mouse IgG1 kappa (555749) antibodies were from BD Transduction Labs. Drugs were used at 5 μM final concentration. EGFP control cDNA was from (Lonza). FAK cDNA was obtained from A. Huttenlocher, Addgene plasmid number 35039 (Chan et al., J. Biol. Chem., 285:11418-26 (2010)).
PYK2, a FAK-like tyrosine kinase, could not be detected in WM858 cells, irrespective of endogenous FAK levels. WM858 cells carrying control (NC) or FAK-specific shRNAs (841 and 102) were then exposed to IPTG for 5 days, and changes in adhesion gene expression were subsequently quantified by PCR. […] Moreover, Dabrafenib-induced blockage of ERK activity could be partially reversed by a complete FAK knock-down in 102 cells (FIG. 13P).

The subject of assay [3] is ERK. As to the kind of experiment: ERK activity (phospho-ERK) by Western blotting after overnight drug incubation. The conditions noted are these: WM858 melanoma cells, 5 μM. As for the experimental part:
FIGS. 13A-13P illustrate B-raf^V600E inhibits FAK to promote integrin surface expression. FIG. 13A: shRNAs 841, 102 and NC were induced in WM858 cells by IPTG for 5 days (n=4) followed by RNA quantitation. Genes regulated at 0 vs. 0.05 mM IPTG in 841 and 102 but not NC cells are shown. These were: ITGB3 (orange), FAK (blue). Light orange, light blue: up- or down-regulation, respectively, by either 841 or 102 shRNA. FIG. 13B: WM858 cells were transfected with FAK or EGFP cDNA. Regulated genes, FAK over EGFP cells, are shown in orange (up) or blue (down) (n=4). FIG. 13C: Flow cytometry of NC, 841 and 102 cells (un-induced vs. 0.05 mM IPTG for 5 days). FIG. 13D: Integrin cell surface mean intensities; mean.+−.s.d.; n=3; *, p<0.05; p values, Student's t-test; ns, not significant. FIG. 13E: Visualization of focal adhesions by paxillin staining on micropatterned fibronectin disks. […] FIGS. 13M-13O: FAK/ERK levels in NHM and WM858 after overnight drug incubation (FIG. 13M); quantification of FAK (FIG. 13N) and ERK phosphorylation (FIG. 13O); mean.+−.s.d.; n=4; *, p<0.05; p values, Student's t-test. […]
as §2
A general note: A western blot detects proteins with antibodies after separation by electrophoresis.

These results are taken from patent US11851710B2, “Methods and materials for identifying metastatic malignant skin lesions and treating skin cancer” (Mayo Foundation for Medical Education and Research, priority 2014, dated 2023).

For the compound `Cc1ccc2c(c1)C(=O)C1(O)CCN(c3ccccc3)C1=N2` (stereo not shown) [blebbistatin], the “β3 integrin surface levels” value in assay [1] is listed as “induced”. Further, the entries for the “β1 integrin surface levels” value in assay [2] (B-raf wild-type melanoma cells) and in assay [2] (B-rafV600E melanoma cells) were “not” and “induced”, respectively.

As to `CS(=O)(=O)c1cccc(CNc2nc(Nc3ccc4c(c3)CCC(=O)N4)ncc2C(F)(F)F)c1` [PF-573228], in assay [3], the ERK activity entry is “induce”. For the same compound, in assay [1], the “β3 integrin surface levels” value is reported as “induced”. Also, the “β1 integrin surface levels” value was “not” in assay [2] (B-raf wild-type melanoma cells) and “induced” in assay [2] (B-rafV600E melanoma cells).
